Results: US20240059703A1 (AMGEN INC., priority 2021, published 2024)

Tests used:
[1] = tested on: MIA PaCa-2 (human pancreatic carcinoma) cells; assay: Cell Viability Assay (CellTiter-Glo), MIA PaCa-2; format: cell-based
Method: Serially-diluted compound or DMSO was added to the cells, and plates were incubated at 37° C., 5% CO2 for 72 h. Cell viability was measured using a CellTiter-Glo® Luminescent Cell Viability Assay kit (Promega) according to the manufacturer's protocol. The luminescence signal of treated samples was normalized to DMSO control, and data were analyzed using a 4-parameter logistic model to calculate IC50 values.

[2] = tested on: A549 (human lung carcinoma) cells; assay: Cell Viability Assay (CellTiter-Glo), A549; format: cell-based
Procedure, shortened: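 After a 72 h exposure to serial compound dilutions at 37° C, luminescent ATP content was measured with CellTiter-Glo. The cells were A549 or MIA PaCa-2, seeded at 1.67E+04 cells/mL in RPMI 1640 with 10% serum. Signals were normalized to DMSO controls and IC50 fitted with a 4-parameter logistic model.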

[3] = molecular target: KRAS G12C (Homo sapiens (Human), UniProt P01116, C118A/G12C); assay: 2 h coupled exchange assay; format: biochemical; conditions: Avg 2 h Coupled exchange IC50, 2 h compound pre-incubation
Method: The term “2 h coupled exchange assay” or “20 h coupled exchange assay” as used herein refers to the assay described in the Section entitled “BIOLOGICAL EVALUATION.”

[4] = SOS-mediated nucleotide exchange

Sequence of KRAS G12C (P01116 other isoform, or with tags, fused parts or gaps G12C/C118A): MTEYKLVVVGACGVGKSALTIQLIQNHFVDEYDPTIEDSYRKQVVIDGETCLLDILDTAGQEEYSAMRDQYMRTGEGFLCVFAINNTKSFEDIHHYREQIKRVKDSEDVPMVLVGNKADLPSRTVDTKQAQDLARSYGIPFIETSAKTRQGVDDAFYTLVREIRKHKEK

Structure (SMILES)	IC50 ([1]; Homo sapiens, MIA PaCa-2, 72 h) [nM]	IC50 ([2]; Homo sapiens, A549, 72 h) [nM]	IC50 [3] [nM]	IC50 [3, 4] [nM]	IC50 ([1]; 72 h) [nM]	IC50 ([2]; 72 h) [nM]
C=CC(=O)N1CC2(CCN(c3nc4c(c(-c5ccccc5F)c3C#N)CCN(c3ccncc3C)C4)C2)C1 [Example 21-21, 4-(2-fluorophenyl)-7-(3-methyl-4-pyridinyl)-2-(2-(2-propenoyl)-2,6-diazaspiro[3.4]octan-6-yl)-5,6,7,8-tetrahydro-1,7-naphthyridine-3-carbonitrile]	> 5000	> 5000	442	–	–	–
C=CC(=O)N1CC2(CCN(c3nc(-c4ccccc4F)c4c(n3)N([C@H](CC(=O)NC)CC(C)C)CC4)C2)C1 (single isomer, unassigned) [Example 9]	1690	> 5000	–	691	–	–
C=CC(=O)N1CC2(CCN(c3nc4c(c(-c5cc(O)ccc5C)c3C)COC(C)(C)C4)C2)C1 (single isomer, unassigned) [Example 14-31, (M)-1-(6-(4-(5-hydroxy-2-methylphenyl)-3,7,7-trimethyl-7,8-dihydro-5H-pyrano[4,3-b]pyridin-2-yl)-2,6-diazaspiro[3.4]octan-2-yl)-2-propen-1-one]	105	> 5000	106	–	–	–
C=CC(=O)N1CC2(CCN(c3nc4c(c(-c5c(C)ccc6cnn(C)c56)c3C#N)CC[C@H]3C[C@@H]43)C2)C1 (single isomer, unassigned) [Example 13-137, (6a,7a)-4-(1,6-dimethyl-1H-indazol-7-yl)-2-(2-(2-propenoyl)-2,6-diazaspiro[3.4]octan-6-yl)-6,6a,7,7a-tetrahydro-5H-cyclopropa[h]quinoline-3-carbonitrile]	468	> 5000	–	72	–	–
C#CC(=O)N1CC2(CCN(c3nc4c(F)cccc4c(-c4c(C)ccc5[nH]ncc45)c3C#N)C2)C1 [Example 1-14, 8-fluoro-4-(5-methyl-1H-indazol-4-yl)-2-(2-(2-propynoyl)-2,6-diazaspiro[3.4]octan-6-yl)-3-quinolinecarbonitrile]	69	1090	–	327	–	–
C=CC(=O)N1CC2(CCN(c3nc4c(c(-c5c(C)ccc6cnn(C)c56)n3)CCCC4)C2)C1 [Example 1-25, 1-(6-(4-(1,6-dimethyl-1H-indazol-7-yl)-5,6,7,8-tetrahydro-2-quinazolinyl)-2,6-diazaspiro[3.4]octan-2-yl)-2-propen-1-one]	8860	20300	–	2600	–	–
C=CC(=O)N1CC2(CCN(c3nc4c(c(-c5c(N)c(Cl)cc(Cl)c5F)c3C#N)COC(C)(C)C4)C2)C1 [Example 13-154, 4-(2-amino-3,5-dichloro-6-fluorophenyl)-7,7-dimethyl-2-(2-(2-propenoyl)-2,6-diazaspiro[3.4]octan-6-yl)-7,8-dihydro-5H-pyrano[4,3-b]pyridine-3-carbonitrile]	776	> 5000	–	81	–	–
C=CC(=O)N1CC2(CCN(c3nc4c(c(-c5c(C)ccc6[nH]ncc56)c3C(F)F)COC(C)(C)C4)C2)C1 [Example 13-45, 1-(6-(3-(difluoromethyl)-7,7-dimethyl-4-(5-methyl-1H-indazol-4-yl)-7,8-dihydro-5H-pyrano[4,3-b]pyridin-2-yl)-2,6-diazaspiro[3.4]octan-2-yl)-2-propen-1-one]	421	> 5000	–	148	–	–
C=CC(=O)N1CC2(CCN(c3nc4c(c(-c5cccc6cc(O)ccc56)c3C)CCN(C(C)C)C4)C2)C1 [Example 18-1, 1-(6-(4-(6-Hydroxy-1-naphthalenyl)-3-methyl-7-(2-propanyl)-5,6,7,8-tetrahydro-1,7-naphthyridin-2-yl)-2,6-diazaspiro[3.4]octan-2-yl)-2-propen-1-one]	23	> 5000	37	–	–	–
C=CC(=O)N1CC2(CCN(c3nc4cc(-n5cncc5C)ccc4c(-c4ccccc4Cl)c3C#N)C2)C1 [Example 17-7, 4-(2-chlorophenyl)-7-(5-methyl-1H-imidazol-1-yl)-2-(2-(2-propenoyl)-2,6-diazaspiro[3.4]octan-6-yl)-3-quinolinecarbonitrile]	1800	3100	126	–	–	–

Other lines, results leading:

IC50 ([1]; Homo sapiens, MIA PaCa-2, 72 h) [nM]	IC50 ([2]; Homo sapiens, A549, 72 h) [nM]	IC50 [3] [nM]	IC50 [3, 4] [nM]	IC50 ([1]; 72 h) [nM]	IC50 ([2]; 72 h) [nM]	Structure (SMILES)
316	> 5000	419	–	–	–	C=CC(=O)N1CC2(CCN(c3nc4c(c(-c5cc(O)ccc5Cl)c3C)CCN(C(C)C)C4)C2)C1 [Example 18-9, 1-(6-(4-(2-chloro-5-hydroxyphenyl)-3-methyl-7-(2-propanyl)-5,6,7,8-tetrahydro-1,7-naphthyridin-2-yl)-2,6-diazaspiro[3.4]octan-2-yl)-2-propen-1-one]
3380	15900	–	1660	–	–	C=CC(=O)N1CC2(CCN(c3nc4c(c(-c5c(C)ccc6[nH]nc(C)c56)n3)CCCC4)C2)C1 [Example 1-36, 1-(6-(4-(3,5-dimethyl-1H-indazol-4-yl)-5,6,7,8-tetrahydro-2-quinazolinyl)-2,6-diazaspiro[3.4]octan-2-yl)-2-propen-1-one]
1080	3370	92	–	–	–	C=CC(=O)N1CC2(CCN(c3nc4c(c(-c5ccccc5C)c3C#N)CCC(c3scnc3C)=C4)C2)C1 (single isomer, unassigned) [Example 23-23, (M)-4-(2-methylphenyl)-7-(4-methyl-1,3-thiazol-5-yl)-2-(2-(2-propenoyl)-2,6-diazaspiro[3.4]octan-6-yl)-5,6-dihydro-3-quinolinecarbonitrile]
3120	14600	179	–	–	–	C=CC(=O)N1CC2(CCN(c3nc4c(c(-c5ccccc5F)c3C#N)CCC3(c5scnc5C)C4C3(F)F)C2)C1 (stereo not drawn) [Example 23-37]
569	10400	–	91	–	–	C=CC(=O)N1CC2(CCN(c3nc4c(c(-c5cc(O)ccc5C)c3C#N)[C@H]3CC[C@@H]4C3)C2)C1 (stereo in doubt) [Example 14-9, (1R,8S)-6-(5-hydroxy-2-methylphenyl)-4-(2-(2-propenoyl)-2,6-diazaspiro[3.4]octan-6-yl)-3-azatricyclo[6.2.1.0^2,7]undeca-2,4,6-triene-5-carbonitrile]
–	–	74	–	1400	3790	C=CC(=O)N1CC2(CCN(c3nc4cc(-c5scnc5C)ccc4c(-c4ccccc4C)c3C#N)C2)C1 (single isomer, unassigned) [Example 19-12, (M)-4-(2-methylphenyl)-7-(4-methyl-1,3-thiazol-5-yl)-2-(2-(2-propenoyl)-2,6-diazaspiro[3.4]octan-6-yl)-3-quinolinecarbonitrile]
110	> 5000	–	55	–	–	C=CC(=O)N1CC2(CCN(c3cc4c(c(-c5cc(O)cc6ccccc56)c3C#N)CCC(C)(C)C4)C2)C1 [Example 2-98, 3′-hydroxy-6,6-dimethyl-3-(2-(2-propenoyl)-2,6-diazaspiro[3,4]octan-6-yl)-5,6,7,8-tetrahydro[1,1′-binaphthalene]-2-carbonitrile]
157	3420	–	67	–	–	C=CC(=O)N1CC2(CCN(c3nc4c(c(-c5cc(O)cc6ccccc56)c3C#N)C3CCC4C3)C2)C1 [Example 2-38, (1R,8S)-6-(3-hydroxy-1-naphthalenyl)-4-(2-(2-propenoyl)-2,6-diazaspiro[3.4]octan-6-yl)-3-azatricyclo[6.2.1.0^2,7]undeca-2,4,6-triene-5-carbonitrile|(1S, 8R)-6-(3-hydroxy-1-naphthalenyl)-4-(2-(2-propenoyl)-2,6-diazaspiro[3.4]octan-6-yl)-3-azatricyclo[6.2.1.0^2,7]undeca-2,4,6-triene-5-carbonitrile]
